# In patent US20230059785A1, “METHODS FOR ENHANCING T CELLS USING VENETOCLAX” (University Health Network, priority 2020, published 2023):
# Tests used:
# [1] = system: DNTs treated with 400 nM Ven; test: Co-treatment of DNT cells with Venetoclax and ROS scavenger NAC; type: cell-based, human
# Protocol: (C) To determine the functional relevance of increased ROS level in Ven treated DNTs, ROS level in DNTs treated with 400 nM Ven in the presence of various concentrations of ROS-scavenger, N-acetylcysteine (NAC), and these cells were used as effector cells against AML during an in vitro killing assay. The result shown is representative of three independent experiments. […] (H-K) DNT (H and I) or Tconv cells (J and K) were treated with 0 nM, 100 nM, or 400 nM Venetoclax for 4 hours, 18 hours and 2 days. Cells were stained with CellROX (H and J) or MitoSOX (I and K). MFI of cellular or mitochondrial (mt) ROS was measured by flow cytometry. Data represent the mean ±SEM of results from four different donor T cells. (L) DNTs treated with 400 nM Venetoclax with or without 2 mM NAC for 18 hours. […] MFI of CD25 and CD69 were measured by flow cytometry. Experiments were done in triplicates, and the data shown is representative of two independent experiments done using DNTs from two donors. (M) DNT cells were treated with 400 nM Venetoclax for 18 hours.
# OCI-AML2 [2] = test: DNT cells pre-treated with Bcl-2 family protein inhibitors, used as effectors against OCI-AML2; settings: overnight pre-treatment, different concentrations
# Description: FIG. 5. […] (A) DNT cells were pre-treated with different concentrations of Obatoclax, ABT-737, or Venetoclax overnight and were used as effector cells against OCI-AML2. […] (C) Expression of Bcl-xL and Bcl-2 on ex vivo expanded DNT cells from three donors (UPN38, UPN108, and UPN134) and AML cell lines, OCI-AML2, TEX, NB4, and K562 determined by Western blot. Tubulin was used as a loading control.
# As Bcl-2 is well-known to protect cells from apoptosis, one would expect that inhibiting this pathway would lead to increased T cell apoptosis and dampened T cell function.
# DNT cells = test: Glycolysis, glycolytic capacity and oxygen consumption rate of DNT cells; type: cell-based, human
# [3] = system: AML cell lines, OCI-AML2, OCI-AML3, and KG1a; test: In vitro killing assay with Ven-pretreated DNT cells against AML cell lines; type: cell-based, human; settings: Ven 50, 100, 200, 400 nM overnight
# Protocol: (§1) FIG. 2. Venetoclax enhances T cell mediated cytotoxicity against AML in vitro. (A) To validate the finding from the drug screening, in vitro killing assay was conducted with DNT cells untreated or pretreated with various concentrations of Ven (50 nM, 100 nM, 200 nM, 400 nM) for overnight against AML cell lines, OCI-AML2, OCI-AML3, and KG1a. The data is representative of four biological replicates. (B) In vitro cytotoxicity assay using DNT cells pretreated with 400 nM Ven as effectors against primary AML patient samples (n=17). (C) To determine the activity of DNT cells with or without Ven-treatment against leukemia initiating cells, untreated AML or AML treated with untreated or Ven-treated DNT cells were seeded at 10^3 cells per ml in a methylcellulose-based colony forming assay, and the number of colonies formed were determined 10 days after. The experiment was done with OCI-AML2 and KG1a, as well as patient samples 140372, 100857, 110162 and 141065. […] The experiment was done using DNT cells from two different donors (UPN119 and UPN38). (E) Correlation between the susceptibility of AML to DNT cells and the degree of increase in DNT cell-mediated cytotoxicity by Ven treatment. […] Subsequently, they were cultured with OCI-AML2 at 1:1, 2:1, or 4:1 DNT:AML ratio, and the viability of AML cells were measured by Annexin V staining and flow cytometry. […]
# DNTs [4] = test: Viability of DNTs treated with Venetoclax (Annexin V staining and flow cytometry); type: cell-based, human; settings: Venetoclax 18 h
# Protocol: FIG. 10. […] (A) Viability of DNTs and OCI-AML2 cells treated with 400 nM Venetoclax for 18 hours was determined by Annexin V staining and flow cytometry. (B and C) DNTs were treated with increasing concentrations of Venetoclax for 18 h. Subsequently, their viability (B) and cytotoxicity (C) against OCI-AML2 and two primary AML cells (090765 and 110162) were determined. ANOVA was used for statistics. ****p<0.0001.
# [5] = system: autologous and allogeneic PBMCs; test: Cytotoxicity of DNT cells against normal blood cells; type: cell-based, human; settings: PBMCs from healthy donors
# Description: To determine if Ven increases the cytotoxicity of DNT cells against normal blood cells, autologous and allogeneic PBMCs from healthy donors were used as targets.
# [6] = system: primary AML patient samples; type: cell-based, human
# Protocol: as §1, with “UPN38).” for “UPN38). (E) Correlation between the susceptibility of AML to DNT cells and the degree of increase in DNT cell-mediated cytotoxicity by Ven treatment.”
# FIG. 11. […] The increase in DNT-mediated cytotoxicity by Venetoclax treatment was determined against each patient sample type. […]
# [7] = system: AML cell lines, OCI-AML2, OCI-AML3, and KG1a; test: In vitro killing assay with Ven-pretreated Tconv cells against AML cell lines; type: cell-based, human; settings: Ven 25-400 nM
# Protocol: FIG. 4(A). Venetoclax enhances anti-leukemic activity of CD4^+ or CD8^+ conventional T cells. Ex vivo expanded Tconv cells untreated or treated with various concentrations of Ven (25 nM, 50 nM, 100 nM, 200 nM, or 400 nM), were used as effector cells against AML cell lines, OCI-AML2, OCI-AML3, and KG1a. The result shown represents four biological replicates. FIG. 4(B).
# While treating DNT cells with Ven to enhance their anti-leukemic activity may be beneficial for DNT-therapy, experiments were performed to determine whether Ven has an effect on the anti-leukemic activity of CD4^+ or CD8^+ conventional T (Tconv) cells as Tconv cells are more wildly used as cancer immunotherapy clinically. To this end, polyclonally activated Tconv cells were pre-treated with different concentrations of Ven prior to their co-culture with […]
# [8] = system: human AML cell line, OCI-AML2; test: Drug screening assay: DNT cells pretreated with 269 approved drugs, then used as effectors against AML; type: cell-based; settings: DNT cells treated at 400 nM overnight, washed, cultured with AML cells two hours; library of 269 drugs
# Protocol: FIG. 1. Drug screening assay identifies Venetoclax as the top hit for enhancing cytotoxicity of T cells against AML. Schematic diagram of drug screening assay done to identify clinically approved drugs that can be used in combination with DNT cells to yield in synergistic anti-tumor activity. DNT cells were treated with 269 different clinically approved drugs at 400 nM for overnight. Subsequently, compound-treated cells were washed and then cultured with AML cells for two-hours.
# To identify molecules that increase the potency of T cell mediated cytotoxicity against AML, ex vivo expanded DNT cells were used as a surrogate for anti-leukemic T cells and pretreated with a compound library of 269 drugs approved for various clinical uses. Subsequently, compound-treated cells were used as effectors against human AML cell line, OCI-AML2.
# DNT and Tconv cells = test: Viability of DNT and Tconv cells after Venetoclax treatment; type: cell-based, human; settings: Venetoclax 100 nM or 400 nM, 4 hours
# Protocol: (§2) Venetoclax rapidly and directly increases cytotoxicity of T cells against AML. DNT (top panels) and Tconv cells (bottom panels) untreated or treated with Venetoclax (100 nM and 400 nM) for 4 h, 18 h, and 3 days. Subsequently, their cytotoxicity against OCI-AML2 was determined. Data represent the mean ±SEM of results from four different donor T cells. FIG. 4(C). DNT and Tconv cells untreated or treated with Venetoclax (100 nM or 400 nM) for 4 hours. Subsequently, their viability was determined. Data represent the mean ±SEM of results from four different donor T cells.
# (§3) To elucidate the underlying mechanism by which Ven-mediates increased cytotoxicity of T cells, the expression of T cell activation markers and effector molecules on DNT cells with or without Ven treatment was compared. […] Thus, Venetoclax directly activates effector T cells to increase their cytotoxicity without depleting naïve or inhibitory T cell subsets.
# OCI-AML2 [9] = test: Time course of Venetoclax treatment of DNT and Tconv cells, cytotoxicity against OCI-AML2; type: cell-based, human; settings: DNTs and Tconv cells; Venetoclax 100 nM and 400 nM; 4 hours up to 3 days
# Protocol: as §2, §3
# DNTs [10] = test: Effect of other ROS-inducing reagents on DNT ROS level and viability; settings: 18 hours; cytarabine 0-3 μM, antimycin 0-250 nM, daunorubicin 0-10 μM
# Protocol: (§4) FIG. 15. Effect of other known ROS-inducing reagents on DNT viability, ROS level, and cytotoxicity against AML. DNTs were treated with increasing concentrations of cytarabine (0-3 μM), antimycin (0-250 nM) or daunorubicin (0-10 μM) for 18 hours. Subsequently, the level of cellar ROS in the DNTs (A), DNT viability (B), and cytotoxicity against OCI-AML2 (C) were determined.
# (§5) To determine the effect of other ROS-inducing agents on DNT-mediated cytotoxicity, DNTs were treated with increasing concentrations of cytarabine, daunorubicin, and antimycin.
# OCI-AML2 [11] = test: Effect of other ROS-inducing reagents on DNT cytotoxicity against OCI-AML2; settings: 18 hours; cytarabine 0-3 μM, antimycin 0-250 nM, daunorubicin 0-10 μM
# Protocol: as §4, §5
molecule,measurement,setting,value
"CC(=O)N[C@@H](CS)C(=O)O [NAC, N-acetylcysteine]",upregulation of activation markers (CD25 and CD69) by Venetoclax,"[1]; 400 nM Venetoclax with 2 mM NAC, 18 hours",blocked the upregulation of activation markers
same,DNT cell-mediated cytotoxicity against AML,[1]; co-treatment with 400 nM Ven,abrogated the effect of Venetoclax on DNT cell-mediated cytotoxicity against AML
same,cellular ROS level in Venetoclax-treated DNT cells,[1]; co-treatment with 400 nM Ven,reduced the cellular ROS level
COC1=CC(c2cc3ccccc3[nH]2)=N/C1=C\c1[nH]c(C)cc1C [Obatoclax],effect on DNT cells and their cytotoxicity against OCI-AML2,OCI-AML2 [2],induced DNT cell death or inhibited their cytotoxicity
CC1(C)CCC(CN2CCN(c3ccc(C(=O)NS(=O)(=O)c4ccc(NCC5CCOCC5)c([N+](=O)[O-])c4)c(Oc4cnc5[nH]ccc5c4)c3)CC2)=C(c2ccc(Cl)cc2)C1 [Venetoclax],"glycolysis, glycolytic capacity, and basal oxygen consumption rate of DNT cells",DNT cells,no significant effect
same,cytotoxicity of Ven-pretreated DNT cells against AML cell lines,[3],"increased cytotoxicity of DNT cells against three different AML cell lines, AML2-OCI, AML3-OCI, and KG1a, in a dose-dependent manner"
same,viability of DNTs,DNTs [4],without reducing the viability of the DNTs
same,killing of autologous and allogeneic PBMCs by Ven-treated DNT cells,[5],insignificant degree of killing
same,correlation between susceptibility of AML to DNT cells and degree of increase in DNT cell-mediated cytotoxicity by Ven treatment,[6],clear inverse correlation
same,cytotoxicity of Ven-pretreated Tconv cells against AML cell lines,[7],significant enhancement of cytotoxicity of Tconv cells
same,change in cytotoxicity mediated by DNT cells against AML cells relative to untreated DNT cells,[8],increased the cytotoxicity of DNT cells the most
same,T cell viability,DNT and Tconv cells,without changing the T cell viability
same,T cell cytotoxicity against AML after different treatment times,OCI-AML2 [9],increased T cell cytotoxicity against AML
Nc1ccn([C@@H]2O[C@H](CO)[C@@H](O)[C@@H]2O)c(=O)n1 [cytarabine],level of cellular ROS in DNTs,DNTs [10],Increased ROS levels
COc1cccc2c1C(=O)c1c(O)c3c(c(O)c1C2=O)C[C@@](O)(C(C)=O)C[C@@H]3O[C@H]1C[C@H](N)[C@H](O)[C@H](C)O1 [daunorubicin],level of cellular ROS in DNTs,DNTs [10],lower ROS level
antimycin,DNT viability,DNTs [10],no to little loss of viability
same,level of cellular ROS in DNTs,DNTs [10],Increased ROS levels
same,DNT-mediated cytotoxicity against OCI-AML2,OCI-AML2 [11],did not enhance the cytotoxicity of DNTs
